# Measured values published in US20080171710A1, “The Redox/Fyn/c-Cbl Pathway” (priority 2007, published 2008).
# Like-named read-outs stand apart in the source and are kept apart here.
# Tests used:
# [1] = test system: O-2A/OPCs; assay: In vitro BrdU incorporation assay; format: cell-based, rat; details: TMX 10 nM, 100 nM and 1 μM, 2 days
# Procedure: Cell proliferation was assessed by bromodeoxyuridine (BrdU) incorporation and by using the mouse anti-BrdU mAb IgGl (1:100; Sigma) to label dividing cells. Stained cells on cover slips were rinsed two times in 1×PBS, counterstained with 4′6-diamidino-2-phenylindole (DAPI; Molecular Probes, Eugene, Oreg., United States) and mounted on glass slides with Fluoromount (Molecular Probes). Staining against surface proteins was performed on cultures of living cells or on cells fixed with 2% paraformaldehyde. Staining with intracellular antibodies was performed by permeabilizing cells with ice-cold methanol for 4 min or by using 0.5% Triton for 15 mm on 2% parafomaldhyde-fixed cells. Antibody binding was detected with appropriate fluorescent dye-conjugated secondary antibodies at 10 μg/ml (Southern Biotech, Birmingham, Ala., United States) or Alexa Fluor-coupled antibodies at a concentration of 1 μg/ml (Molecular Probes), applied for 20 min. Anti-BrdU monoclonal antibody was obtained from Sigma.
# [2] = test system: c-Cbl; format: cell-based, rat; details: for c-Cbl phosphorylation after toxicant exposure: 30 nM MeHg, 1 μM Pb, 5 μM paraquat
# Procedure: (§1) For the co-immunoprecipitation assay, anti-c-Cbl monoclonal antibody (BD PharMingen) or anti-PDGFRα polyclonal antibody (Santa Cruz Biotechnology) was added to the pre-cleared cell lysates (250 μg of total protein), and the mixtures were gently rocked for 2 h at 4° C. A total of 30 μl of protein A/G agarose was then added to the mixture followed by rotating at 4° C. overnight. The protein A/G agarose was then spun down and washed thoroughly three times. The precipitates were resolved on an 8% SDS-PAGE gel and then were subjected to Western blot analysis using an anti-p-Tyr (for c-Cbl phosphorylation assay) or ubiquitin (for PDGFR ubiquitylation assay) antibody (Santa Cruz Biotechnology).
# [3] = test system: PDGFRα; format: cell-based, rat; details: for total levels of PDGFRα after toxicant exposure: MeHg 30 nM, 1 μM Pb, 5 μM paraquat
# [4] = test system: c-Met; format: cell-based, rat; details: for levels of c-Met after toxicant exposure: MeHg, Pb or paraquat
# Excerpt: (§2) Anti-phosphorylated Erk monoclonal, anti-Erk monoclonal, anti-TrkC polyclonal anti-Fyn polyclonal, anti-EGFR polyclonal, anti-c-Met polyclonal, anti-phospho-tyrosine monoclonal, and anti-PDGFRα polyclonal antibodies were obtained from Santa Cruz Biotechnology (Santa Cruz, Calif., United States). Anti-c-Cbl monoclonal antibody was obtained from BD PharMingen (San Diego, Calif., United States). Anti-phosphorylated Akt monoclonal and anti-Akt polyclonal antibodies were obtained from Cell Signaling Technology (Beverly, Mass., United States). Anti-phosphorylated PDGPRα polyclonal antibody was obtained from Biosource (Carlsbad, Calif., United States). The cell culture samples were collected and lysed in RAPI buffer, whereas dissected tissue samples were sonicated in RAPI buffer. Samples were resolved on SDS-PAGE gels and transferred to PVDF membranes (PerkinElmer Life Science. Wellesley, Mass., United States), After being blocked in 5% skim milk in PBS containing 0.1% Tween 20, membranes were incubated with a primary antibody, followed by incubation with an HRP-conjugated secondary antibody (Santa Cruz Biotechnology). Membranes were visualized using Western Blotting Luminol Reagent (Santa Cruz Biotechnology). All analyses of signaling pathway components were conducted in the presence of ligand for the receptor pathway under analysis (either PDGF-AA for PDGFRα, NT-3 or TrkC, HGF for c-Met, or EGF for EGFR).
# [5] = test system: EGFR; format: cell-based, rat; details: for levels of EGFR after toxicant exposure: MeHg, Pb or paraquat
# Excerpt: as §2
# [6] = test system: TrkC; format: cell-based, rat; details: for levels of TrkC after toxicant exposure: MeHg, Pb or paraquat
# Excerpt: as §2
# [7] = test system: MDA-MB-231 cell; assay: MDA-MB-231 cell division by BrdU incorporation; format: cell-based; details: 20 μM tamoxifen, 48 hours
# Procedure: It has been reported that c-Cbl induced down-regulation of EGFR is disabled in cancer cells (Hirsch DS, Shen. Y, Wu WJ, (2006) Cancer Res. Apr 1;66(7):3523-30). Thus, growth and motility inhibition of breast cancer cells by EGFR degradation is correlated with inaetivation of Cdc42. […] Cells were cultured in phenol red-free growth media and exposed to TMX (0, 1 μM, 10 μM, 20 μM and 50 μM) for 48 hours, with or without 1 mM NAC. In FIG. 22C. MDA-MB-231 cell division was analyzed by BrdU incorporation analysis. […] Percentage of Brdu+ cells from DAPI+ cells was determined in each sample.
# [8] = test system: PDGFRα; assay: PDGFRα phosphorylation (Western blot, anti-PDGFRα(pY742)); format: cell-based, rat; details: for phosphorylation of PDGFRα after toxicant exposure: 30 nM MeHg, 1 μM Pb, 5 μM paraquat
# Excerpt: The cells were then collected and lysed for Western blotting. […] Cells were lysed for Western blot analysis using anti-PDGFRα(pY742) antibody. The membranes were de-probed and then re-probed with antibody against total PDGFRα and anti-β-tubulin antibody. […]
# as §2
# [9] = test system: Fyn; format: cell-based, rat; details: exposure to Aβ (5-20 μM)
# [10] = test system: O-2A/OPCs; assay: Cell death of O-2A/OPCs on exposure; format: cell-based, rat; details: for cell death at the concentrations used: MeHg at lower concentrations (not above 50 nM), 1 μM Pb, 5 μM paraquat
# Procedure: To generate sufficient numbers of cells for biochemical analysis, cells, were expanded through one to two passages in PDGF+FGF-2 before replating in the presence of PDGF alone. When cells achieved approximately 50% confluence, MeHg, Pb, or paraquat was added to their medium at concentrations indicated. Doses for the toxicants were chosen on the basis of dose-response curves to identify sub-lethal exposure levels, as a reflection of blood and brain toxicant levels of these compounds and, where applicable, on the basis of previous reports. All toxicant concentrations examined were confirmed to cause death of less than 5% of cells over the time course of the experiment.
# [11] = test system: Erk1/2; format: cell-based, rat; details: for PDGF-induced Erk1/2 phosphorylation after toxicant exposure: 30 nM MeHg 24 h, 1 μM Pb, 5 μM paraquat
# Procedure: Cells were deprived of PDGF-AA for 5 h before re-exposure to PDGF-AA (10 ng/ml) for 1 h for Western blot or 6 h for luciferase assays of pathway activation. Transient transfection was performed using Fugene6 (Roche, Basel, Switzerland ) transfection solution according to the manufacturer's protocol. For the luciferase assay, cells seeded in 12-well plates were transfected with a reporter plasmid SRE-Luc(firefly) or NF-κB-Luc(firefly) (BD-Clontech, Palo Alto, Calif., United States) and an internal control plasmid pRLSV40-LUC. Analyses of luciferase activity were performed according to the protocol of the Dual Luciferase Assay System (Promega, Madison, Wis., United States), which uses an internal control of Renilla luciferase for quantification, and relative light units were measured using a luminometer.
# as §2
# [12] = test system: O-2A/OPCs; assay: Intracellular ROS / redox state measurement; format: cell-based, rat; details: 1 μM Pb or 5 μM paraquat; dyes dihydro-chloromethyl-rosamine or dihydro-calcein-AM
# Procedure: Cells were plated in 96-well microplates and grown to about 60% continence. […] Cells were then washed once with HBSS and growth medium to remove free probe. Then, fresh growth medium was added and a baseline fluorescence reading was taken prior to treatment. For NAC pre-treatment. […] Fluorescence was measured in a Wallac 1420 Victor2 multilabel counter (PerkinElmer) using excitation and emission wavelengths of 485 nm and 535 nm, respectively, at different time courses as indicated in the figures. Results are presented as the value change from baseline by the formula (Ftexp−Ftbase)/Ftbase normalized with the control group, where Ftexp=fluorescence at any given time during the experiment in a give well and Ftbase=baseline fluorescence of the same well.
# [13] = biological target: T1, Fyn (Rattus norvegicus, UniProt Q62844); format: cell-based; details: for Fyn activation after toxicant exposure: 30 nM MeHg, 1 μM Pb, 5 μM paraquat
# T1 construct: 250 μg of total cell lysates were immunoprecipitated with anti-Fyn antibody; endogenous in cells; host or cells: primary rat O-2A/OPCs
# Procedure: Fyn kinase activity was quantified using the Universal Tyrosine Kinase Assay Kit (Takara, Madison, Wis., United States). O-2A/OPCs exposed to different treatments were solubilized with an equal volume of the extraction buffer provided with the kit for 15 min, and the resulting lysates were centrifuged at 13,000×g for 15 min at 4° C.; 250 μg of total cell lysates were immunoprecipitated with anti-Fyn antibody (Santa Cruz Biotechnology). Following immunoprecipitation, Fyn immune complexes were washed four times with extraction buffer, and then Fyn kinase activities of each sample were assayed using the kit according to the manufacturer's instructions.
# [14] = test system: PDGFRα; assay: PDGFR ubiquitylation (immunoprecipitation assay); format: cell-based, rat; details: co-exposure with MeHg
# Procedure: as §1
# T1 sequence (Q62844 whole entry): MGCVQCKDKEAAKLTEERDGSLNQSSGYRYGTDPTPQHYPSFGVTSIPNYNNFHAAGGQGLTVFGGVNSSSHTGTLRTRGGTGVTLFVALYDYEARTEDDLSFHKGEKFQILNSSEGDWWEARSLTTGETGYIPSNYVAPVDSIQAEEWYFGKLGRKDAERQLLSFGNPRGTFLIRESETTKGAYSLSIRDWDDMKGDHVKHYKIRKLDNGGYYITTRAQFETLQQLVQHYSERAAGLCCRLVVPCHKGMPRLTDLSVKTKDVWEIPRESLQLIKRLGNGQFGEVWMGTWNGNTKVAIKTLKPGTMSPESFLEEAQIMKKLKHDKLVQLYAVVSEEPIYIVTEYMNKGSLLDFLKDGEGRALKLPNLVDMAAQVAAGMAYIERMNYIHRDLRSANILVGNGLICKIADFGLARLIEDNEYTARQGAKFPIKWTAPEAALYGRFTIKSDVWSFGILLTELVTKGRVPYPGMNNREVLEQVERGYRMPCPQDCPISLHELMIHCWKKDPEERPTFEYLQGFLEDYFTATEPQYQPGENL
compound,measurement,setting,value
CC/C(=C(\c1ccccc1)c1ccc(OCCN(C)C)cc1)c1ccccc1 [tamoxifen],O-2A/OPC division,[1],Suppression
same,c-Cbl activation,[2]; 100 nM tamoxifen,activates
same,levels of PDGFRα,"[3]; tamoxifen (100 nM; time course 4, 12, 24 hours)",causes reductions
same,levels of PDGFRα,"[3]; tamoxifen (100 nM; time course 4, 12, 24 hours), listed as TMX",parallel reduction over time
same,levels of c-Met,[4]; TMX exposure,decreased
same,levels of EGFR,[5]; TMX exposure,decreased
same,levels of Trk (non-c-Cbl target),[6]; TMX treatment,no differences
same,reduction in cell division,[7],~10%
same,levels of phosphorylated PDGFRα,"[8]; TMX exposure 4, 12, 24 hours",parallel reduction over time
Aβ(1-42): amino acids 1-42 of amyloid beta protein,Fyn phosphorylation,[9],phosphorylated
same,c-Cbl phosphorylation,[2]; exposure to Aβ (5-20 μM),phosphorylated
same,cell death,"[10]; 5-10 μM Aβ(1-42), 48 hrs",little cell death
same,concentration inducing progenitor cell death,[10]; O-2A/OPCs,20 µM
same,levels of PDGFRα,[3]; exposure to Aβ,reduced
same,Erk1/2 phosphorylation induced by NT-3,[11]; exposure to Aβ(1-42),had no effect
same,PDGF-mediated induction of Erk1/2 phosphorylation,[11]; exposure to Aβ(1-42),inhibited
C[n+]1ccc(-c2cc[n+](C)cc2)cc1 [paraquat],c-Cbl phosphorylation after toxicant exposure,[2],increased phosphorylation of c-Cbl
same,cell death at the concentrations used,[10],did not cause cell death
same,cells more oxidized (intracellular redox state),[12],approximately 20%
same,Fyn activation after toxicant exposure,[13],activation of Fyn
same,total levels of PDGFRα after toxicant exposure,[3],reduced
same,PDGF-induced Erk1/2 phosphorylation after toxicant exposure,[11],reduced levels of Erk1/2 phosphorylation
same,levels of c-Met after toxicant exposure,[4],also reduced
same,levels of EGFR after toxicant exposure,[5],also reduced
same,levels of TrkC after toxicant exposure,[6],neither Pb or paraquat caused a reduction
same,phosphorylation of PDGFRα after toxicant exposure,[8],reduced
"[Pb] [Pb, lead]",c-Cbl phosphorylation after toxicant exposure,[2],increased phosphorylation of c-Cbl
same,cell death at the concentrations used,[10],did not cause cell death
same,cells more oxidized (intracellular redox state),[12],approximately 20%
same,Fyn activation after toxicant exposure,[13],activation of Fyn
same,total levels of PDGFRα after toxicant exposure,[3],reduced
same,PDGF-induced Erk1/2 phosphorylation after toxicant exposure,[11],reduced levels of Erk1/2 phosphorylation
same,levels of c-Met after toxicant exposure,[4],also reduced
same,levels of EGFR after toxicant exposure,[5],also reduced
same,levels of TrkC after toxicant exposure,[6],neither Pb or paraquat caused a reduction
same,phosphorylation of PDGFRα after toxicant exposure,[8],reduced
"Cl.N [NH4Cl, ammonium chloride]",effect on MeHg-induced c-Cbl phosphorylation,[2]; added 1 h before MeHg,lack of effect
same,effect on Aβ-induced increase in phosphorylated c-Cbl,[2]; co-exposure with Aβ,not blocked
same,effect on MeHg-induced Fyn activation,[13]; added 1 h before MeHg,lack of effect
same,levels of ubiquitylated PDGFRα in MeHg-treated cells,[14],increased levels of ubiquityiated receptor
same,effect on Aβ-induced reduction in PDGFRα levels,[3]; co-exposure with Aβ,blocked
same,effect on MeHg-induced reductions in levels of PDGFRα,[3]; together with MeHg,blocked
same,effect on Aβ(1-42) suppression of PDGF-mediated Erk1/2 phosphorylation,[11]; co-exposure with Aβ(1-42),not
same,effect on MeHg-associated suppression of Erk1/2 phosphorylation,[11]; co-treatment with MeHg,blocked
same,effect on MeHg-induced suppression of PDGFRα phosphorylation,[8]; co-exposure with MeHg,protected
